Experimental findings from US20140113904A1, “TREATMENT OF CANCER WITH TOR KINASE INHIBITORS” (SIGNAL PHARMACEUTICALS, LLC, priority 2012, published 2014) are described below.

The subject of test [1] is 4E-BP1(T46). The experiment in a line: Phospho-4E-BP1(T46) in PC3 cell lysates, Luminex multiplex. The format is cell-based, human. Particulars: PC3, 1 hour exposure; read-out: p-4E-BP1(T46) IC50. The source says: The direct substrate for TORC1 was 4E-BP 1(T46) and indirect downstream substrate was S6RP(S235/S236). The direct substrate for TORC2 was Akt(S473) and indirect downstream substrates measured were GSK3β(S9) and PRAS40(T246). Additionally, the phosphorylation status of Akt(T308), a phosphorylation site for PDK1 was monitored.
The multiplex Luminex assay format differs from conventional enzyme-linked immunosorbent assay (ELISA) in that the multiplex capture antibody is attached to a polystyrene bead whereas the ELISA capture antibody is attached to the microplate well. The use of the suspension bead-based technology enables the multiplexing capabilities of the Luminex assays. The xMAP® technology uses 5.6 micron polystyrene microspheres, which are internally dyed with red and infrared fluorophores of differing intensities. Each bead is given a unique number, or bead region, allowing differentiation of one bead from another. Beads covalently bound to different specific antibodies can be mixed in the same assay, utilizing a 96-well microplate format. At the completion of the sandwich immunoassay, beads can be read, using the Luminex 100™ or Luminex 200 detection system, in single-file by dual lasers for classification and quantification of each analyte. […]

Test [2] concerns PC3 cells. The experiment in a line: WST-1 cell proliferation assay (Compound 1, rapamycin). Particulars: read-out: Compound 1 Growth Inhibition IC50; PC3, 3 days. The format is cell-based, human. The procedure:
All test wells were in triplicate on the plate and in a final volume of 200 μL. The final concentration of DMSO in all wells was 0.2%. […] All growth inhibition experiments were repeated on different occasions at least twice. Potency was determined from calculating the IC50 value from the data describing the growth inhibition curve. A reference compound was included in each plate assay to monitor inter-assay variation and the IC50 from the reference was used as part of the acceptance criteria for the assay.
Next, compound was added to the designated well at a dilution of 1:10 (i.e., 20 μL of the diluted compound was added to 180 μL of culture media in each well). The final dilution of compound was 1:500 which yielded a final DMSO concentration of 0.2% in each well. All concentrations were performed in triplicate. […] Absorbance was measured at 450 nm on the VICTOR™ X2 multilabel plate reader (PerkinElmer).
Raw data was saved as a text file and then entered into Activity Base (Cell-based SAR; Prolif-MTT, MTT-6pt-5plates unfixed fit. Version2). The software (XLfit from IDBS) calculated the percent inhibition at each compound concentration by normalizing to the DMSO control values for each set of triplicate wells. Percent inhibition curves were plotted and IC50 values calculated.
All data was analyzed using XLfit from IDBS. […]

As to `CO[C@H]1CC[C@H](N2C(=O)CNc3ncc(-c4ccc(C(C)(C)O)nc4)nc32)CC1` [Compound 1, 7-(6-(2-hydroxypropan-2-yl)pyridin-3-yl)-1-((1r,4r)-4-methoxycyclohexyl)-3,4-dihydropyrazino-[2,3-b]pyrazin-2(1H)-one], the IC50 in test [1] turned out to be 0.41 µM; in test [2], 0.11 µM.
